Data as given in US11738099B2, “Molecular probes and methods of use” (CASE WESTERN RESERVE UNIVERSITY, priority 2014, dated 2023).
Where no end group is shown, it is not given here.

Tests used:
[1] = Relaxivity at 1.5T in water, 37° C.; assay type: physicochemical; settings: listed as Gd(HP-DO3A)
Protocol: Relaxivity is an important parameter for an MR contrast agent. It reflects how the relaxation rate of the surrounding water proton changes as a function of concentration, and it is directly associated with the agent's contrast enhancing capability during imaging. The relaxivity of the 4 contrast agents was tested at 37° C. in water and compared to Gd(HP-DO3A), Gd-DOTA and ZD2-Gd(HP-DO3A) (FIG. 26). […] Compared to Gd(HP-DO3A), Gd-DOTA, the size increase of the targeted contrast agents due to the peptides and PEG spacer could result in an increase of τR,^[42, 43] thus leading to higher relaxivities.

[2] = test system: PC-3 human prostate cancer xenograft; assay: MRI of PC-3 xenograft (Example 2); assay type: in vivo, mouse; settings: 0.1 mmol-Gd/kg intravenous
Source text: The same contrast agent also works for prostate cancer imaging. We then tested the effectiveness of targeting EDB-FN with the contrast agent for prostate cancer MRI in male nude mice bearing primary PC-3 human prostate cancer xenograft.

[3] = test system: PC3 prostate tumor xenografts; assay: T1-weighted MRI at 1 Tesla, PC3 tumors (Example 3); assay type: in vivo, mouse; settings: 0.1 mmol/kg i.v., up to 30 min, 1 Tesla
Protocol: (§1) Male athymic nude mice were purchased from Case Comprehensive Cancer Center (Cleveland, Ohio, USA) and housed in the Animal Core Facility at Case Western Reserve University. All animal experiments were performed in accordance with the animal protocol approved by the CWRU Institutional Animal Care and Use Committee. Athymic nude male mice were subcutaneously injected with 100 μL cell suspension (4×10^7 cells/mL) in matrigel matrix (Corning Bioscience, Corning, N.Y.) to initiate tumors. Mice with tumors of 5-8 mm in diameter were used for imaging studies.
(§2) MR images of tumor bearing mice were acquired on an Aspect M3 small animal MRI scanner (1 Tesla). Mice were placed on a holder with the temperature maintained at 37° C., with isoflurane/oxygen mixture supplied to the mice through a nose cone. A thin catheter filled with PBS was connected to a tail vein of the mice. After mice were placed in the coil, a pilot scan was performed to adjust mice to the proper location in the coil. An axial T1 weighted sequence (TR=500 ms; TE=9 ms; Flip angle=90°; Field of view=3 cm×3 cm; Matrix size=128×128×8; slice thickness=2 mm; interslice distance=1 mm) was then used to acquire the images of the tumors before and 10 min, 20 min and 30 min after contrast injection. Images were exported into DICOM data, which were then processed and analyzed using Matlab (Natick, Mass., USA). The contrast to-noise ratio of tumors in the images were calculated as the difference between tumor mean intensity minus muscle mean intensity, divided by the noise.

[4] = test system: LNCaP prostate tumor xenografts; assay: In vivo T1-weighted MRI at 7T, LNCaP tumors; set-up: species or system mouse
Protocol: (§3) All MRI experiments were performed on a horizontal 7T Bruker scanner (Bruker Biospin Co., Billerica, Mass.). Imaging experiments were performed when the tumor size reached 5-8 mm in diameter. ZD2-Gd(HP-DO3A) was administered intravenously at the dose of 0.1 mmol/kg after acquiring pre-contrast images. Post-contrast images were obtained at 10 min interval up to 30 min. The axial slices of mouse at the tumor location were acquired using T1-weighted spin echo sequence with the following parameters: field of view (FOV): 3 cm; slice thickness: 1.2 mm; interslice distance: 1.2 mm; TR: 500 ms, TE: 8.1 ms; flip angle: 90°; average: 2; matrix size: 128×128. Contrast-to-noise ratio (CNR) at each time point was calculated by subtraction of the average signal intensity in the tumor and muscle, divided by the standard deviation of image noise. ProHance® (gadoteridol) was used as a control in the imaging experiments.

[5] = r1 relaxivity by T1 mapping in PC3 tumor lysates; assay type: physicochemical
[6] = test system: LNCaP prostate tumor xenografts; assay: T1-weighted MRI at 1 Tesla, LNCaP tumors (Example 3); assay type: in vivo, mouse; settings: 0.1 mmol/kg i.v., up to 30 min
Protocol: as §1
as §2, with “An axial T1 weighted sequence (TR=500 ms; TE=9 ms; Flip angle=90°; Field of view=3 cm×3 cm; Matrix size=128×128×8; slice thickness=2 mm; interslice distance=1 mm) was then used to acquire the images of the tumors before and 10 min, 20 min and 30 min after contrast injection.” left out

[7] = test system: PC3 prostate tumor xenografts; assay: In vivo T1-weighted MRI at 7T, PC3 tumors; set-up: species or system mouse
Protocol: as §3

[8] = test system: PC3 tumors; assay: In vivo MRI at 1.0 Tesla, PC3 tumor-bearing mice (Example 5); set-up: species or system mouse
Protocol: All MRI experiments were performed on an Aspect M3 compact MRI scanner (1.0 Telsa, Aspect Imaging. Israel). Imaging experiments were performed when the tumor size reached 5-8 mm in diameter. Each contrast agent was administered intravenously at a dose of 0.1 mmol/kg Gd^3+ after acquiring pre-contrast images. ProHance® (gadoteridol) was used as a control in the imaging experiments. Post-contrast images were obtained at 10 min intervals up to 30 min. Axial slices of the mouse at the tumor location were acquired using a T1-weighted spin echo sequence with the following parameters: TR=500 ms, TE=8.144 ms, slice thickness=1 mm, inter-slice gap=0.1 mm, field of view (FOV)=3 cm×3 cm. The total imaging time is 216 seconds. Contrast-to-noise ratio (CNR) at each time point was calculated by measuring the ratios of signal intensities in manually drawn regions of interest (ROIs) in tumor and muscle, and then normalizing to image noise. A 3D FLASH gradient echo sequence was used for whole-body coronal imaging. Imaging parameters were TR=17.362 ms, TE=6 ms, flip angle=15°, slice thickness=1.5 mm, FOV=[…]. The total imaging time is 226 seconds. Each of the 16 slices was acquired immediately after the acquisitions with the T1-weighted spin echo sequence.

[9] = test system: 4T1 metastatic tumors; assay: Fluorescence detection of micrometastasis, breast cancer metastatic tumor model; assay type: in vivo, mouse; settings: three hours after 10 nmol injection
Protocol: In order to construct a metastatic tumor model, 0.2×10^6 4T1 tumor cells undergone 5 days of TGFβ induction were injected through left ventricle of heart, resulting in the spread of tumor cells primarily in brain, lung, liver, lymph node, adrenal gland, chest, and bone marrow. Bioluminescent images of the mice at two weeks were used to monitor the growth of tumors. To assess the targeting capacity of l-ZD2-Cy5, brain and lung were harvested from the mice three hours after 10 nmol l-ZD2-Cy5 were injected. […] Normal brain and lung harvested from normal mice injected with l-ZD2-Cy5 were used as negative controls. Examination of bigger metastatic tumors in lymph nodes and adrenal gland, as shown in FIG. 8B further backed up the targeting efficiency of l-ZD2-Cy5.

[10] = test system: TGFβ induced 4T1 cells; assay: Binding of Cy5 probes to TGFβ induced 4T1 cells in vitro; assay type: cell-based
Protocol: As tumor cells produce EDB-FN to promote its migration, we further validated if Cy5 labeled l-ZD2 (l-ZD2-Cy5) can bind to TGFβ induced 4T1 cells in vitro. […] To explain this, we hypothesize that in this form of cell culture, no clot formation can take action to provide binding sites for CREKA-Cy5. To validate our hypothesis, we further produced a 3D culture system that mimics the “soil” of metastatic tumor. In the 3D culture system, 4T1 cells were cultured in a microenvironment containing TGFβ, collagen, and fibrin. […] In overall, these evidences point to the conclusion that the use of EDB-FN for targeting micrometastasis may be advantageous compared with Fibronectin-Fibrin complexes in that EDB-FN appears earlier than Fibronectin-Fibrin in the pre-metastatic niche.

[11] = target: EDB fragment (Homo sapiens, UniProt P02751); assay: Peptide ELISA of HRP-conjugated peptides on coated EDB; assay type: binding; settings: HRP conjugates
Protocol: A linear version of ZD2 (CTVRTSADA) SEQ ID NO: 42 was synthesized so that sulfhydryl group on cysteine could be used for conjugation with maleimide-activated […] (Sigma-Aldrich). Conjugation was carried out as instructed in the manual. The product of conjugation, ZD2-HRP, was used for peptide ELISA assay after coating a 96-well plate with purified EDB. 0.5% BSA in PBS was used to block non-specific binding for later steps. 0.39 μM to 50 μM of ZD2-HRP was incubated with coated EDB for an hour followed by extensive washing with TBST (0.1%). ABTS substrate was added subsequently and allowed to react for 30 min before the absorbance of solution in each well were measured at 415 nm. Non-coated wells added with ABTS were used as blank.
Cyclic ZD2 peptide (CTVRTSADC) (SEQ ID NO: 10) was synthesized using standard solid phase peptide chemistry and was characterized by MALDI-TOF mass spectrometry (FIG. 1C). The peptide was then labeled with a fluorescence chromophore cyanine 5 (Cy5) through a short PEG linker (NH2—(CH2CH2O)—CH2CH2COOH) to give a peptide fluorescence probe ZD2-Cy5. The peptide was also conjugated to peroxidase (ZD2-HRP) and the binding affinity of the peptide to EDB fragment was determined using peptide ELISA assay.
(§4) Similarly, CERAK-HRP is synthesized as a control.

[12] = target: EDA (Homo sapiens, UniProt P02751); assay: ELISA of l-ZD2-HRP on EDA; assay type: binding
Source text: as §4

[13] = 0.1 mmol/kg i.v., up to 30 min, 7T

EDB fragment, sequence (P02751 1271-1359 limits assumed): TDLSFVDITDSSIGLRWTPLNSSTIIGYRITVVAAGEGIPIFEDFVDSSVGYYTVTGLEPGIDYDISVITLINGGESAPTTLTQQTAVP
EDA, sequence (P02751 1727-1814 limits assumed): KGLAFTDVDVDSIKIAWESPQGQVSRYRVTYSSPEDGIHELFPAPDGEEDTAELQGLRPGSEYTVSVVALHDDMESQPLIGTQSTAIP

Molecule: CC(O)CN1CCN(CC(=O)[O-])CCN(CC(=O)[O-])CCN(CC(=O)[O-])CC1.[Gd+3] (centres unmarked) [ProHance, gadoteridol, reference compound]
- r1 [1]: 2.9 mM⁻¹ s⁻¹
- tumor contrast enhancement [2]: little contrast enhancement
- signal enhancement in PC3 tumors [3]: modest contrast enhancement
- signal enhancement in LNCaP tumors [4, 13]: modest contrast enhancement
- CNR in LNCaP tumors ([4]; 10-30 min post-injection): 7˜10
- r1 relaxivity [5]: 3.17 mM⁻¹ s⁻¹
- signal enhancement in LNCaP tumors [6]: modest contrast enhancement
- signal enhancement in PC3 tumors [7, 13]: modest contrast enhancement
- CNR in PC3 tumors ([7]; 10-30 min post-injection): 7˜11
- tumor signal enhancement, T1-weighted spin-echo ([8]; 0.1 mmol/kg i.v., at 10 minutes, remained at least 30 min): modest contrast enhancement
- time of peak CNR in PC3 tumors ([8]; Gd-DOTA conjugates and ProHance, 0.1 mmol/kg): 10 min
- CNR in PC3 tumors compared to the peptide targeted contrast agents ([8]; especially at 20 and 30 min): lower CNR

Molecule: l-ZD2-Cy5: Cy5 labeled l-ZD2 (TVRTSAD; also: Cy5 labeled, site not given here)
- binding to micrometastases on brain and lung [9]: clearly outlined the micrometastases
- binding to induced 4T1 cells ([10]; cell culture): bound to induced 4T1 cells within 3 hours
- binding in 3D culture of 4T1 cells ([10]; microenvironment containing TGFβ, collagen, and fibrin): accumulated in the cell periphery starting from day 1

Molecule: l-ZD2-HRP: NH2-TVRTSADC-COOH conjugated via cysteine thiol to maleimide activated horseradish peroxidase
- binding to EDB protein [11]: comparable to cyclic ZD2 with a slight increase in affinity
- binding to EDA [12]: No binding
